Laboratory results as given in US9187784B2, “EphA4 is a disease modifier in motor neuron disease” (VIB VZW, priority 2011, dated 2015).
Marks after values point to notes of the source that are not given here.

How the values were obtained:
[1] = tested on: non-transgenic or wild-type SOD1-expressing fish; assay: axonal and total body length in non-transgenic or wild-type SOD1-expressing fish; assay type: in vivo; conditions: zebrafish, average ± s.e.m.
Description: Y-axes show motor axon length of non-transgenic (black bar) or SOD1WT-expressing (white bar) zebrafish embryos, injected with either atg-RTK2 (shaded bars, Panel A) or atg-RTK1 morpholino (shaded bars, Panel B). Ctr-RTK2 and ctr-RTK1 were used as controls. Error bars are s.e.m.
To identify disease-modifying genes in ALS in an unbiased way, knockdown screening was performed in the mutant SOD1 zebrafish model (reference 13), using a library of 303 translation blocking morpholinos (atg-mo), of which 58 were targeting genes presumed to be neuronally expressed (according to the NCBI database) and 245 randomly chosen targeting genes. […] The morpholino yielding the highest rescue in two separate experiments was studied further. It targets zebrafish receptor tyrosine kinase 2 (RTK2, also known as epha4b), which has 67% identity and 80% homology to the human orthologue EPHA4. Knockdown of RTK2 in fish expressing mutant SOD1 completely and dose-dependently rescued the motor axonopathy (both axonal length and aberrant branching) caused by three different SOD1 mutations: A4V, G93A and G37R (FIG. 1, Panels A-F; Table 2). […] Receptor tyrosine kinase 1 (RTK1, also known as epha4a), the fish paralogue of RTK2, has 83% identity and 92% homology to human EPHA4. RTK1 knockdown was dose-dependently and equally protective as RTK2 knockdown (FIG. 1, Panel G; Table 4). […]

[2] = tested on: mutant SOD1-overexpressing fish; assay: mutant SOD1-induced motor axonopathy in zebrafish embryos (percentage affected embryos, motor axon length); assay type: in vivo; conditions: 30 hpf
Excerpt: FIG. 1: EphA4 knockdown rescues mutant SOD1-induced motor axonopathy. […] Abnormal branching is indicated with arrowhead. Y-axes show motor axon length of zebrafish embryos expressing wild-type SOD1 (black bar, Panels D-G) or mutant SOD1 (white bar, Panels D-G). Knockdown of RTK2 in SOD1A4V- (Panel D), SOD1G93A- (Panel E) and SOD1G37R- (Panel F) expressing fish was established by co-injection of increasing amounts of atg-RTK2 morpholino (shaded bars). RTK1 expression was inhibited in SOD1A4V-expressing fish by co-injection of atg-RTK1 morpholino (shaded bars, Panel G). Ctr-RTK2 and ctr-RTK1 were used as control. ANOVA and Bonferroni's multiple comparison tests were used for statistical analysis. Comparing axonal length in SOD1A4V fish injected with ctr-RTK2 (n=39) vs. different doses atg-RTK2: 3 ng (n=43, p=0.0059), 4.5 ng (n=37, p=0.0016, Panel D), SOD1G93A: ctr-RTK2 (n=60) vs. atg-RTK2: 1.5 ng (n=55, p=0.015), 3 ng (n=51, p=2.82×10-9), 4.5 ng (n=46, p=2.22×10-15, Panel E), SOD1G37R: ctr-RTK2 (n=37) vs. atg-RTK2: 3 ng (n=25, p=0.027), 4.5 ng (n=36, p=0.0018, Panel F) and SOD1A4V: ctr-RTK1 (n=49) vs. atg-RTK1: 1.5 ng (n=51, p=2.51×10-7), 3 ng (n=64, p=7.99×10-10), 4.5 ng (n=54, p<1×10-20, Panel G). Western blot of SOD1WT or SOD1A4V (1.76 ng) expressing zebrafish embryos (30 hpf), co-injected with either ctr-RTK1 or atg-RTK1 (4.5 ng). Sixty embryos were used per group with actin as the loading control (H). Immunostaining of rtk1 (green) in rhombomeres 3 and 5 and of ephrin-b2 (magenta) in rhombomere 4 in zebrafish embryos injected with either ctr-RTK1 or atg-RTK1 (4.5 ng). RTK1-depleted embryos show disorganized rhombomere boundaries (arrowhead, I, Scale bar 50 μm). Error bars are s.e.m.
FIG. 2: RTK2 knockdown protects motor axons against SOD1^A4V-induced injury. Effect of RTK2 knockdown, established by injection of splice-rtk2 morpholino, on the motor axon length of SOD1^A4V-expressing zebrafish embryos (30 hpf). SOD1^WT-expressing fish and a non-functional five-base pair-mismatch control morpholino (ctr-RTK2) were used as control (Panel A). ANOVA and Bonferroni's multiple comparison tests were used for statistical analysis: SOD1^A4V/ctr-RTK2 (n=56) vs. SOD1^A4V/spl-RTK2 (n=60, 1.79×10^−4). Spl-RTK2 was designed against the exon 2 splice site of the zebrafish RTK2 pre-mRNA and alternatively skipped out exon 2. RT-PCR on non-transgenic fish (lane 1), ctr-RTK2-injected fish (lane 2) and spl-RTK2-injected fish (lane 3) at 30 hpf. Functional RTK2 mRNA, containing exon 2, is indicated by the 818-bp product (upper band) while non-functional RTK2 mRNA, lacking exon 2 is indicated by the 156-bp product (lower band), 60 embryos each group (Panel B). Error bars are s.e.m.
FIG. 12: Pharmacological inhibition of EphA4 receptor signaling protects against mutant SOD1 pathology in vivo. Effect of treatment with Compound 1 (C1, 500 μM) on the motor axon length of zebrafish embryos (30 hpf). DMSO (1/250 dilution) was used as control (Panel A). ANOVA and Bonferroni's multiple comparison tests were used for statistical analysis: SOD1^A4V/C1 (n=68) vs. SOD1^A4V/DMSO (n=76, p=3.54×10^−5). Effect of KYL-peptide (3 mM) treatment of 60-day-old SOD1^G93A rats on disease onset (Panel B) and survival (Panel C). Artificial CSF (ACSF) was used as control. Average disease onset: 133 days (treated, n=21) versus 125 days (control, n=17, T-test p=0.044). Average survival: 148 days (treated, n=21) versus 139 days (controls, n=17, T-test p=0.041). Error bars are s.e.m.
Effect of RTK2 knockdown (established by injection of atg-RTK2 morpholino) on the percentage of affected wild-type SOD1 or mutant SOD1 (A4V, G93A, G37R) zebrafish embryos (30 hpf). Ctr-RTK2 morpholino was used as control. An embryo was considered as affected when it had more than 10% abnormally branched motor axons. Significance of mtSOD1/ctr-RTK2 (4.5 ng) vs. mtSOD1/atg-RTK2 (4.5 ng) was determined by Mann-Whitney test, * p=0.0075, ° p=0.039 and # p=0.0052. […]

EphA4 = EphA4 (Homo sapiens, UniProt P54764); conditions: Noberini et al.; cited from earlier work
Chain of EphA4 (P54764 20-986, species assumed): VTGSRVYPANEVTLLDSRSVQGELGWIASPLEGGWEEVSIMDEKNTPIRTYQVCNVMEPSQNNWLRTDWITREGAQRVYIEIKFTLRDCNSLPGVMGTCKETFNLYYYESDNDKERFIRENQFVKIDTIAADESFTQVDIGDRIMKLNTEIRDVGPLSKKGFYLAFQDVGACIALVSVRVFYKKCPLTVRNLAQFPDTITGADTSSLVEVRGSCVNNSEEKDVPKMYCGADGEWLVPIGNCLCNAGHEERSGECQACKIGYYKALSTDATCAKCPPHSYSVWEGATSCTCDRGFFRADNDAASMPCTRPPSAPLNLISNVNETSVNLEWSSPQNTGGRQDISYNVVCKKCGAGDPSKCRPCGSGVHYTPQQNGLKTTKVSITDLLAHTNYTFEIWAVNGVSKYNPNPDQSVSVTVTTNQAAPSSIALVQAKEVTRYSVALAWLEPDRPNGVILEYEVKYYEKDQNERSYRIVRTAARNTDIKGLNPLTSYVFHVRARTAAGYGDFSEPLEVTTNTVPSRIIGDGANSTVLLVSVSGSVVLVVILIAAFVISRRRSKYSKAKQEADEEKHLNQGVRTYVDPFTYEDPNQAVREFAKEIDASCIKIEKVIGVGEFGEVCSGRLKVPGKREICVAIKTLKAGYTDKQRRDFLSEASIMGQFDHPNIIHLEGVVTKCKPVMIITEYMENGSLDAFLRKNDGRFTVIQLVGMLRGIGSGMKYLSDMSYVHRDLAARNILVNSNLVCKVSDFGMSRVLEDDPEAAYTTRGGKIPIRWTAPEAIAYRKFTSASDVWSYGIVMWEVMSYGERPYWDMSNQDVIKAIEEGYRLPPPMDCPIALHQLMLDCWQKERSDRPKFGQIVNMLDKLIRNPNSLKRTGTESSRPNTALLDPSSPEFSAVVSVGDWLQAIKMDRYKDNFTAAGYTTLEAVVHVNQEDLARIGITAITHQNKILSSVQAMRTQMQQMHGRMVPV

Row | Molecule | body length [1] | % affected embryos (more than 10% abnormally branched motor axons) ([2]; mtSOD1 A4V zebrafish embryos, morpholino 1.5 ng) | % affected embryos (more than 10% abnormally branched motor axons) ([2]; mtSOD1 A4V zebrafish embryos, morpholino 3.0 ng) | % affected embryos (more than 10% abnormally branched motor axons) ([2]; mtSOD1 A4V zebrafish embryos, morpholino 4.5 ng) | % affected embryos (more than 10% abnormally branched motor axons) ([2]; mtSOD1 G37R zebrafish embryos, morpholino 1.5 ng) | % affected embryos (more than 10% abnormally branched motor axons) ([2]; mtSOD1 G37R zebrafish embryos, morpholino 3.0 ng) | % affected embryos (more than 10% abnormally branched motor axons) ([2]; mtSOD1 G37R zebrafish embryos, morpholino 4.5 ng) | % affected embryos (more than 10% abnormally branched motor axons) ([2]; mtSOD1 G93A zebrafish embryos, morpholino 1.5 ng) | % affected embryos (more than 10% abnormally branched motor axons) ([2]; mtSOD1 G93A zebrafish embryos, morpholino 3.0 ng) | % affected embryos (more than 10% abnormally branched motor axons) ([2]; mtSOD1 G93A zebrafish embryos, morpholino 4.5 ng) | % affected embryos (more than 10% abnormally branched motor axons) ([2]; wtSOD1 zebrafish embryos, morpholino 4.5 ng) | inhibition of ephrin binding to EphA4 (EphA4)
1 | 5′-AATCCAAAGGGTAGCCA-TTTTCAGG-′3 (antisense AATCCAAAGGGTAGCCATTTTCAGG; morpholino, chemistry not fully specified) [atg-RTK2] | 2.70±0.01 mm | 29 (41) % | 18 (44) % | 8* % | 34 (26) % | 8 (25) % | 16# % | 55 (47) % | 50 (54) % | 23° % | 12% | –
2 | Cc1ccc(C)n1-c1ccc(O)c(C(=O)O)c1 [compound 2] | – | – | – | – | – | – | – | – | – | – | – | selectively inhibit ephrin binding to EphA4
